Molecular target: PI3K-alpha (Homo sapiens (Human), UniProt P42336)
Experiment: HTRF PI3K biochemical assay, alpha isoform
Settings: ratio PI3K-alpha IC50 value/PI3K-delta IC50 value
From the text: HTRF PI3K Biochemical Assay to Measure Intrinsic Potency of Compound Inhibitors
The PI3-Kinase biochemical assays were developed to measure the intrinsic potency and compound dependent inhibition of the alpha, beta, delta, and gamma PI3K isoform enzymes. This assay was developed and further optimized from a kit produced by Upstate (Millipore catalog #33-047) and has been configured for HTS and SAR screening. Briefly, this procedure exploits the exquisite specificity and high affinity binding of enzyme reaction substrate phosphatidyl(3,4,5)triphosphate (PIP3) to the GRP1 pleckstrin homology (PH) domain to generate the signal. In the absence of PIP3, an HTRF (Homogeneous Time-Resolved Fluorescence energy transfer) complex is formed consisting of europium (Eu)-labeled anti-GST, GST tagged GRP1-PH domain, biotin-PIP3 and streptavidin conjugated APC. The native PIP3 produced by PI3-Kinase activity disrupts in a competitive manner the biotin-PIP3 from the PH domain, resulting in the loss of energy transfer (HTRF complex) and a decrease in the signal. The format of this assay is the same for all 4 isoforms of PI3K; the differences lie in the concentration of enzyme used to achieve robust assay window. The alpha, beta, and delta assays are run at 0.5, 1, and 0.3 nM enzymes and the gamma assay is run at 5 nM enzyme. The ATP concentration is 100 uM in the alpha, beta, and delta assays and 50 uM ATP in the gamma assay. All reactions are run at 5 uM PIP2.
Compounds are serially diluted (3-fold in 100% DMSO) across a 384-well polypropylene source plated from column 3 to column 12 and column 13 to column 22, to yield 10 concentration dose response for each test compound. Columns 1, 2, 23 and 24 contain either only DMSO or pharmacological known control inhibitor.
The PI3-Kinase biochemical assay was optimized using the HTRF kit provided by Upstate (Millipore). The assay kit contains six reagents: 1) 4× Reaction Buffer; 2) native PIP2 (substrate); 3) Stop (EDTA); 4) Detection Mix A (Streptavidin-APC); 5) Detection Mix B (Eu-labeled Anti-GST plus GST-tagged PH-domain); 6) Detection Mix C.
PI3Kinase Reaction Buffer is prepared by dilution the stock 1:4 with de-ionized water. […] Enzyme addition and compound pre-incubation are initiated by the addition of 1.25 ul of PI3K (at twice its final concentration) in the 1× reaction buffer to all wells using a BioRaptor. Plates are incubated at room temperature for 15 minutes. Reactions are initiated by addition of 1.25 ul of 2× substrate solution (PIP2 and ATP in 1× reaction buffer) using BioRaptor. Plates are incubated in humidified chamber at room temperature for one hour. Reactions are quenched by addition of 0.625 uL of stop solution to all wells using the BioRaptor. The quenched reactions are then processed to detect product formation by adding 0.625 uL of Detection Solution to all wells using the BioRaptor (Detection mix C, Detection Mix A, and Detection Mix B combined together in an 18:1:1 ratio prepared 2 hours prior to use).
The loss of the HTRF signal is due to the displacement of biotinylated-PIP3 from the PH domain by the PI3K-dependent conversion of PIP2 to PIP3. This loss of signal is nonlinear with respect to both increasing product and time. This non-linear detection will impact accuracy of IC50 calculations; therefore, there is a need for a correction factor to obtain more accurate IC50 values. This correction is derived from a PIP3 standard curve run in a separate assay plate. All data were calculated using the ratio of acceptor (APC) to donor (Europium) fluorescence in each well of the assay plate. […] An IC50 was then calculated fitting the % inhibition data to the equation: % inhibition=min+(Max−min)/1+([inhibitor]/IC50)^n) where min is the % inhibition […], max is the signal in DMSO control, and n is the Hill slope.

Sequence of PI3K-alpha (P42336 whole entry, looked up, canonical isoform): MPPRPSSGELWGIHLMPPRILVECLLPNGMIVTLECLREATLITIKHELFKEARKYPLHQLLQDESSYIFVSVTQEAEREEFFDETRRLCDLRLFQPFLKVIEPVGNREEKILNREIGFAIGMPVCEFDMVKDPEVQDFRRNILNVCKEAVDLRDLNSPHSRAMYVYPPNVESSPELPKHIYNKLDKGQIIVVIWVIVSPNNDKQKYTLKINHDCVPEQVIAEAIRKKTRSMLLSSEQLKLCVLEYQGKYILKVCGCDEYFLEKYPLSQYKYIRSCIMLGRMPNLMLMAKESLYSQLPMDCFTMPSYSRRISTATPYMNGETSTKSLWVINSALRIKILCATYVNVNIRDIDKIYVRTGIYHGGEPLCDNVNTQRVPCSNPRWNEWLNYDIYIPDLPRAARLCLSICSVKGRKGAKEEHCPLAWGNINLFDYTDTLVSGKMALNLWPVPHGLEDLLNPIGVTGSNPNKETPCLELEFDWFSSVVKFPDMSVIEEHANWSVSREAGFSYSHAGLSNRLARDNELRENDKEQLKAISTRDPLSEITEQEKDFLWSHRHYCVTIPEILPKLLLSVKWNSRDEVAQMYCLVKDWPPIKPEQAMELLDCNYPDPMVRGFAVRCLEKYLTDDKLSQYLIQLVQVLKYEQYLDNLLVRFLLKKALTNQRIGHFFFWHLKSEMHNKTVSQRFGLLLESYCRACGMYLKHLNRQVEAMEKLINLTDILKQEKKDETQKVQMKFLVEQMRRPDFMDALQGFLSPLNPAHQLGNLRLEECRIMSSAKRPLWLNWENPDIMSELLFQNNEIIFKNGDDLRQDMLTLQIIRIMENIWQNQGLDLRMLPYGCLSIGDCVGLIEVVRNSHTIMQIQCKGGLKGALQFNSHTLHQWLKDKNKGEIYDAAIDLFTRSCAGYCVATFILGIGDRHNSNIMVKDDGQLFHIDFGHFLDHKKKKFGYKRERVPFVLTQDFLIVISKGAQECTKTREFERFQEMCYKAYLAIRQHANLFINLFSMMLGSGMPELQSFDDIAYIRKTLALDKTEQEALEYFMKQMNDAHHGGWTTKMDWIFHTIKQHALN
Sequence of PI3K-alpha (P27986 whole entry partner, looked up, canonical isoform): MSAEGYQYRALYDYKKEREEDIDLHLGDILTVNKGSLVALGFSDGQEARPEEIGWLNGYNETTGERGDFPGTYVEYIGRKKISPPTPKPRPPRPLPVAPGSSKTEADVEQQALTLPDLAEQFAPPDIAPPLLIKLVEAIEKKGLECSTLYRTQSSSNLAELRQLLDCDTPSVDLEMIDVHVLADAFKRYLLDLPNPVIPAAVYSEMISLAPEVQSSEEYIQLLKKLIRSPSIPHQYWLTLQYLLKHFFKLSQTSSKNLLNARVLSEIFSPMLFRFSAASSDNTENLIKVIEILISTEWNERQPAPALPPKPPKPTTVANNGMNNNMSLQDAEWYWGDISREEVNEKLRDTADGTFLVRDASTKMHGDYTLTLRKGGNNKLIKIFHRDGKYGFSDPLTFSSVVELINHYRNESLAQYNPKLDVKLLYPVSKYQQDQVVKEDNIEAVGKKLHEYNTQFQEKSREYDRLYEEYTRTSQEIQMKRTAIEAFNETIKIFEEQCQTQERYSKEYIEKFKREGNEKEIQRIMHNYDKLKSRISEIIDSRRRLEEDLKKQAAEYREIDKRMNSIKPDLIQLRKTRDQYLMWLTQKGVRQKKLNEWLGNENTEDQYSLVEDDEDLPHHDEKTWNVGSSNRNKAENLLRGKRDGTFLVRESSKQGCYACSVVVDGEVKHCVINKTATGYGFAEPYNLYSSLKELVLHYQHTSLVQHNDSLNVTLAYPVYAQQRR

Row | SMILES | Relative Selectivity versus PI3Kalpha
1 | CCn1c(-c2cnc(C)nc2)nc2c(OC3CN(C(=O)C4CC4)CC3C)ncnc21 (single isomer, unassigned) [Compound 3-65, [(3S,4R) or (3R,4S)]6-{[1-(cyclopropylcarbonyl)-4-methylpyrrolidin-3-yl]oxy}-9-ethyl-8-(2-methylpyrimidin-5-yl)-9H-purine] | >10
2 | CCn1c(-c2cnc(C)nc2)nc2c(OC3CN(C(=O)C4CC4)CC3C(F)F)ncnc21 (single isomer, unassigned) [Compound 3-66, cyclopropyl([(3R,4S) or (3S,4R)]-3-(difluoromethyl)-4-((9-ethyl-8-(2-methylpyrimidin-5-yl)-9H-purin-6-yl)oxy)pyrrolidin-1-yl)methanone] | >10
3 | CCn1c(-c2cnc(C)nc2)nc2c(OC3CN(C(=O)C4CC4)CC3C(F)F)ncnc21 (single isomer, unassigned) [Compound 3-67, cyclopropyl([(3R,4S) or (3S,4R)]-3-(difluoromethyl)-4-((9-ethyl-8-(2-methylpyrimidin-5-yl)-9H-purin-6-yl)oxy)pyrrolidin-1-yl)methanone] | >10
4 | CCn1c(-c2cnc(C)nc2)nc2c(OC3CN(C(=O)C4CC4)CC3CF)ncnc21 (single isomer, unassigned) [Compound 3-68, cyclopropyl([(3S,4R) or (3R,4S)]-3-((9-ethyl-8-(2-methylpyrimidin-5-yl)-9H-purin-6-yl)oxy)-4-(fluoromethyl)pyrrolidin-1-yl)methanone] | >10
5 | CCn1c(-c2cnc(C)nc2)nc2c(OC3CN(C(=O)C4CC4)CC3CF)ncnc21 (single isomer, unassigned) [Compound 3-69, cyclopropyl([(3S,4R) or (3R,4S)]-3-((9-ethyl-8-(2-methylpyrimidin-5-yl)-9H-purin-6-yl)oxy)-4-(fluoromethyl)pyrrolidin-1-yl)methanone] | >10
6 | CCn1c(-c2cnc(C)nc2)nc2c(OC3CCC(NC(=O)C4CCOCC4)C3)ncnc21 (single isomer, unassigned) [Compound 9-9, N-[(1S,3S) or (1R,3R)]-(3-{[9-ethyl-8-(2-methylpyrimidin-5-yl)-9H-purin-6-yl]oxy}cyclopentyl)tetrahydro-2H-pyran-4-carboxamide] | >10
7 | CCn1ncc(-c2nc3c(O[C@H]4CCN(C(=O)OC(C)(C)C)C4)ncnc3n2C)c1C [Compound 1-1, tert-butyl (3S)-3-{[8-(1-ethyl-5-methyl-1H-pyrazol-4-yl)-9-methyl-9H-purin-6-yl]oxy}pyrrolidine-1-carboxylate] | >10
8 | CCn1ncc(-c2nc3c(O[C@H]4CCNC4)ncnc3n2C)c1C [Compound 1-2, 8-(1-ethyl-5-methyl-1H-pyrazol-4-yl)-9-methyl-6-[(3S)-pyrrolidin-3-yloxy]-9H-purine] | >5
9 | CCn1c(-c2cnc(C)nc2)nc2c(O[C@H]3CCN(C(=O)OC(C)(C)C)C3)ncnc21 [Compound 1-3, (S)-tert-butyl 3-(9-ethyl-8-(2-methylpyrimidin-5-yl)-9H-purin-6-yloxy)pyrrolidine-1-carboxylate] | >10
10 | CCn1ncc(-c2nc3c(O[C@H]4CCN(C(=O)OCC(C)C)C4)ncnc3n2C)c1C [Compound 1-4, 2-methylpropyl (3S)-3-{[8-(1-ethyl-5-methyl-1H-pyrazol-4-yl)-9-methyl-9H-purin-6-yl]oxy}pyrrolidine-1-carboxylate] | >10
11 | CCn1ncc(-c2nc3c(O[C@H]4CCN(C(=O)OCc5ccccc5)C4)ncnc3n2C)c1C [Compound 1-6, benzyl (3S)-3-{[8-(1-ethyl-5-methyl-1H-pyrazol-4-yl)-9-methyl-9H-purin-6-yl]oxy}pyrrolidine-1-carboxylate] | 4
12 | CCn1ncc(-c2nc3c(O[C@H]4CCN(C(=O)OCC(C)(C)C)C4)ncnc3n2C)c1C [Compound 1-9, 2,2-dimethylpropyl (3S)-3-{[8-(1-ethyl-5-methyl-1H-pyrazol-4-yl)-9-methyl-9H-purin-6-yl]oxy}pyrrolidine-1-carboxylate] | >10
13 | COc1ncc(-c2nc3c(O[C@H]4CCN(C(=O)OC(C)(C)C)C4)ncnc3n2C)cc1C [Compound 1-13, tert-butyl (3S)-3-{[8-(6-methoxy-5-methylpyridin-3-yl)-9-methyl-9H-purin-6-yl]oxy}pyrrolidine-1-carboxylate] | >10
14 | Cc1ncc(-c2nc3c(OC4CCN(C(=O)OC(C)(C)C)C4)ncnc3n2C)cn1 [Compound 1-14, terl-butyl (3S)-3-{[9-methyl-8-(2-methylpyrimidin-5-yl)-9H-purin-6-yl]oxy}pyrrolidine-1-carboxylate] | >10
15 | Cn1c(-c2ccc(-n3cccn3)cc2)nc2c(O[C@H]3CCN(C(=O)OC(C)(C)C)C3)ncnc21 [Compound 1-15, tert-butyl (3S)-3-({9-methyl-8-[4-(1H-pyrazol-1-yl)phenyl]-9H-purin-6-yl}oxy)pyrrolidine-1-carboxylate] | >10
16 | Cc1nn(C)cc1-c1nc2c(O[C@H]3CCN(C(=O)OC(C)(C)C)C3)ncnc2n1C [Compound 1-16, tert-butyl (3S)-3-{[8-(1,3-dimethyl-1H-pyrazol-4-yl)-9-methyl-9H-purin-6-yl]oxy}pyrrolidine-1-carboxylate] | >9
17 | Cc1ncc(-c2nc3c(O[C@H]4CCN(C(=O)OC(C)(C)C)C4)ncnc3n2C)n1C [Compound 1-17, tert-butyl (3S)-3-{[8-(1,2-dimethyl-1H-imidazol-5-yl)-9-methyl-9H-purin-6-yl]oxy}pyrrolidine-1-carboxylate] | >10
18 | Cn1c(-c2ccc(O)cc2)nc2c(O[C@H]3CCN(C(=O)OC(C)(C)C)C3)ncnc21 [Compound 1-18, tert-butyl (3S)-3-{[8-(4-hydroxyphenyl)-9-methyl-9H-purin-6-yl]oxy}pyrrolidine-1-carboxylate] | >10
19 | Cn1c(-c2cn[nH]c2)nc2c(O[C@H]3CCN(C(=O)OC(C)(C)C)C3)ncnc21 [Compound 1-19, tert-butyl (3S)-3-{[9-methyl-8-(1H-pyrazol-4-yl)-9H-purin-6-yl]oxy}pyrrolidine-1-carboxylate] | >10
20 | CN(C)c1ccc(-c2nc3c(O[C@H]4CCN(C(=O)OC(C)(C)C)C4)ncnc3n2C)cn1 [Compound 1-20, tert-butyl (3S)-3-{[8-(6-(dimethylamino)pyridin-3-yl]-9-methyl-9H-purin-6-yl}oxy)pyrrolidine-1-carboxylate] | >10
21 | Cc1cc2cccc(-c3nc4c(O[C@H]5CCN(C(=O)OC(C)(C)C)C5)ncnc4n3C)c2[nH]1 [Compound 1-21, tert-butyl (3S)-3-{[9-methyl-8-(2-methyl-1H-indol-7-yl)-9H-purin-6-yl]oxy}pyrrolidine-1-carboxylate] | >10
22 | Cn1c(-c2cnn3cccnc23)nc2c(O[C@H]3CCN(C(=O)OC(C)(C)C)C3)ncnc21 [Compound 1-22, tert-butyl (3S)-3-[(9-methyl-8-pyrazolo[1,5-a]pyrimidin-3-yl-9H-purin-6-yl)oxy]pyrrolidine-1-carboxylate] | >10
23 | CC(=O)Nc1ccc(-c2nc3c(O[C@H]4CCN(C(=O)OC(C)(C)C)C4)ncnc3n2C)cc1 [Compound 1-23, tert-butyl (3S)-3-({8-[4-(acetylamino)phenyl]-9-methyl-9H-purin-6-yl}oxy)pyrrolidine-1-carboxylate] | >10

From patent publication US9730940B2, “Purine inhibitors of human phosphatidylinositol 3-kinase delta” (priority 2012, dated 2017)
